Results: publication PMC9680032, “Conformationally Locked Carbocyclic Nucleosides Built on a 4′-Hydroxymethyl-3′-hydroxybicyclo[4.1.0]heptane Template. Stereoselective Synthesis and Antiviral Activity” (The Journal of Organic Chemistry, 2022)
In brackets after ≈: the same amount, converted by molar mass.

How the values were obtained:
in vitro [1] = conditions: human
Vaccinia virus = experiment: microbe, parasite or virus in culture; type: cell-based; conditions: for EC50: Orthopoxvirus vaccinia, HEL, read-out: Antiviral EC50 Vaccinia virus
[2] = tested on: Herpes simplex virus-2 (G); experiment: microbe, parasite or virus in culture; type: cell-based; conditions: for EC50: Human alphaherpesvirus 2, HEL, read-out: Antiviral EC50 Herpes simplex virus-2 (G)
[3] = tested on: Herpes simplex virus-1 (KOS); experiment: microbe, parasite or virus in culture; type: cell-based; conditions: for EC50: Human alphaherpesvirus 1, HEL, read-out: Antiviral EC50 Herpes simplex virus-1 (KOS)
Yellow Fever virus = experiment: microbe, parasite or virus in culture; type: cell-based; conditions: for EC50: Yellow fever virus, Vero, read-out: Antiviral EC50 Yellow Fever virus, Vero cell cultures
Adeno virus-2 = experiment: organism not typed; type: cell-based; conditions: for EC50: HEL, read-out: Antiviral EC50 Adeno virus-2
[4] = tested on: Influenza A virus A/HK/7/87 (H3N2); experiment: Antiviral CPE assay, Influenza A (H3N2) in MDCK cells; type: cell-based; conditions: for EC50: Influenza A virus, H3N2, MDCK
[5] = tested on: Respiratory syncytial virus; experiment: Antiviral CPE assay, Respiratory syncytial virus in HEp-2 cells; type: cell-based; conditions: for EC50: human respiratory syncytial virus, HEp-2
Sindbis virus = experiment: Antiviral CPE assay, Sindbis virus in Vero cells; type: cell-based; conditions: for EC50: Sindbis virus, Vero
Punta Toro virus = experiment: Antiviral CPE assay, Punta Toro virus in Vero cells; type: cell-based; conditions: for EC50: Punta Toro virus, Vero
[6] = tested on: Vesicular stomatitis virus; experiment: microbe, parasite or virus in culture; type: cell-based; conditions: for EC50: Vesicular stomatitis virus, HEp-2, read-out: Antiviral EC50 Vesicular stomatitis virus
[7] = tested on: Human immunodeficiency virus (IIIB); experiment: Antiviral CPE assay, HIV-1 (IIIB) in MT-4 cells; type: cell-based, human immunodeficiency virus type 1 (HIV-1); conditions: for EC50: Human immunodeficiency virus 1, IIIB, MT4
[8] = Cytotoxicity in MT-4 cell cultures (MTS); conditions: human, Cytotoxixity CC50, MT-4 cell cultures, MTS assay
Human Coronavirus (229E) = experiment: microbe, parasite or virus in culture; type: cell-based; conditions: for EC50: Human coronavirus 229E, HEL, read-out: Antiviral EC50 Human Coronavirus (229E)
in vitro [9] = conditions: dog
Reo-virus-1 = experiment: Antiviral CPE assay, Reovirus-1 in Vero cells; type: cell-based; conditions: for EC50: Vero
[10] = tested on: Influenza B virus B/Ned/537/05; experiment: Antiviral CPE assay, Influenza B in MDCK cells; type: cell-based; conditions: MDCK cell cultures; for EC50: Influenza B virus
[11] = Cytotoxicity in Vero cell cultures (MTS); type: cell-based, African green monkey; conditions: African green monkey, Vero cells (kidney epithelial cells), uninfected, MTS assay, read-out: Cytotoxixity CC50
Zika virus = experiment: Antiviral CPE assay, Zika virus in Vero cells; type: cell-based; conditions: for EC50: Zika virus, Vero
Coxsackie virus B4 [12] = experiment: Antiviral CPE assay, Coxsackie virus B4 in HEp-2 cells; type: cell-based; conditions: for EC50: Enterovirus B, B4, HEp-2
[13] = tested on: Influenza A virus A/Ned/378/05A (H1N1); experiment: Antiviral CPE assay, Influenza A (H1N1) in MDCK cells; type: cell-based; conditions: for EC50: Influenza A virus, H1N1, MDCK
[14] = Cytotoxicity in HEp-2 cell cultures (MTS); conditions: human
[15] = tested on: Human immunodeficiency virus (ROD); experiment: Antiviral CPE assay, HIV-2 (ROD) in MT-4 cells; type: cell-based; conditions: for EC50: Human immunodeficiency virus 2, MT4
Coxsackie virus B4 [16] = experiment: Antiviral CPE assay, Coxsackie virus B4 in Vero cells; type: cell-based; conditions: for EC50: Enterovirus B, B4, Vero
[17] = tested on: MT-4 cells (human lymphocytic cell line); experiment: Cytotoxicity in MT-4 cell cultures (MTS); conditions: MT-4 cell cultures, MTS assay
in vitro [18] = conditions: human, Cytotoxixity CC50
HEL cells = conditions: human
[19] = tested on: MDCK (Madin-Darby Canine Kidney) cells; conditions: dog
Vero cells = experiment: Cytotoxicity in Vero cell cultures (MTS); type: cell-based, African green monkey; conditions: MTS assay
[20] = tested on: HEp-2 (Human Epidermoid carcicoma) cells; experiment: Cytotoxicity in HEp-2 cell cultures (MTS); conditions: HEp-2 cell cultures, MTS assay

Nc1nc2c(ncn2COCCO)c(=O)[nH]1 [Acyclovir, reference compound]
CC50 (in vitro [1]): > 250 µM
EC50 (Vaccinia virus): > 250 µM
EC50 [2]: 0.5 µM
EC50 [3]: 1.9 µM

Cc1cn(C2CC(O)C(CO)C3CC32)c(=O)[nH]c1=O (stereo not drawn) [Compound 1a, 1-((1′S,2′S,4′R,5′R,6′R)-4′-Hydroxy-5′-(hydroxymethyl)bicyclo[4.1.0]heptan-2′-yl)-5-methylpyrimidine-2,4(1H,3H)-dione]
EC50 (Yellow Fever virus): > 50 µg/mL
EC50 (Adeno virus-2): > 50 µg/mL
EC50 [4]: > 50 µg/mL
EC50 [5]: > 50 µg/mL
EC50 (Sindbis virus): > 50 µg/mL
EC50 (Punta Toro virus): > 50 µg/mL
EC50 [6]: > 50 µg/mL
EC50 [7]: > 99.1 µg/mL
CC50 [8]: 99.1 µg/mL (≈ 372 µM)
EC50 (Human Coronavirus (229E)): > 50 µg/mL
melting point: 189 to 191 °C
CC50 (in vitro [9]): > 50 µg/mL
EC50 (Vaccinia virus): > 50 µg/mL
EC50 (Reo-virus-1): > 50 µg/mL
EC50 [2]: > 50 µg/mL
EC50 [10]: > 50 µg/mL
CC50 [11]: > 50 µg/mL
EC50 (Zika virus): > 50 µg/mL
EC50 [3]: > 50 µg/mL
EC50 (Coxsackie virus B4 [12]): > 50 µg/mL
EC50 [13]: > 50 µg/mL
CC50 [14]: > 50 µg/mL
EC50 [15]: > 99.1 µg/mL
EC50 (Coxsackie virus B4 [16]): > 50 µg/mL

Cc1ccnc2c1NC(=O)c1cccnc1N2C1CC1 [Neviparine, reference compound]
Antiviral EC50 Human immunodeficiency virus (IIIB) [7]: 0.075 µg/mL
Cytotoxixity CC50 [17]: > 4 µg/mL
Antiviral EC50 Human immunodeficiency virus (ROD) [15]: > 4 µg/mL

Nc1ccn([C@@H]2CS[C@H](CO)O2)c(=O)n1 [Lamivudine, reference compound]
EC50 [7]: 0.58 µg/mL (≈ 2.53 µM)
CC50 (in vitro [18]): > 20 µg/mL
EC50 [15]: 2.27 µg/mL (≈ 9.9 µM)

NC(=O)c1nnn(C2CC(O)C(CO)C3CC32)c1N (stereo not drawn) [Compound 3b, 5-Amino-1-[(1′S,2′S,4′R,5′R,6′R)-4′-hydroxy-5′-(hydroxymethyl)bicyclo-[4.1.0]hept-2′-yl]-1H-1,2,3-triazole-4-carboxamide]
EC50 (Yellow Fever virus): > 50 µg/mL
EC50 (Adeno virus-2): > 50 µg/mL
EC50 [4]: > 50 µg/mL
EC50 [5]: > 50 µg/mL
EC50 (Sindbis virus): > 50 µg/mL
EC50 (Punta Toro virus): > 50 µg/mL
EC50 [6]: > 50 µg/mL
EC50 [7]: > 125 µg/mL
CC50 [8]: > 125 µg/mL
EC50 (Human Coronavirus (229E)): > 50 µg/mL
melting point: 210 to 213 °C
CC50 (in vitro [9]): > 50 µg/mL
EC50 (Vaccinia virus): > 50 µg/mL
EC50 (Reo-virus-1): > 50 µg/mL
EC50 [2]: > 50 µg/mL
EC50 [10]: > 50 µg/mL
CC50 [11]: > 50 µg/mL
EC50 (Zika virus): > 50 µg/mL
EC50 [3]: > 50 µg/mL
EC50 (Coxsackie virus B4 [12]): > 50 µg/mL
EC50 [13]: > 50 µg/mL
CC50 [14]: > 50 µg/mL
EC50 [15]: > 125 µg/mL
EC50 (Coxsackie virus B4 [16]): > 50 µg/mL

O=c1[nH]c(=O)n([C@H]2C[C@H](O)[C@@H](CO)O2)cc1/C=C/Br [Brivudin, reference compound]
CC50 (in vitro [1]): > 250 µM
EC50 (Vaccinia virus): 12.6 µM
EC50 [2]: 22.1 µM
EC50 [3]: 0.2 µM

Cc1cn(C2CC(O)C(CO)C3CC32)c(=O)[nH]c1=O (stereo not drawn) [Compound 2, 1-[(1′S,2′S,4′S,5′R,6′R)-4′-Hydroxy-5′-(hydroxymethyl)bicyclo[4.1.0]hept-2′-yl]-5-methylpyrimidine-2,4(1H,3H)-dione]
Antiviral EC50 Yellow Fever virus (Yellow Fever virus; Vero cell cultures): > 50 µg/mL
Antiviral EC50 Adeno virus-2 (Adeno virus-2): > 50 µg/mL
Antiviral EC50 Influenza A virus A/HK/7/87 (H3N2) [4]: > 50 µg/mL
Antiviral EC50 Respiratory syncytial virus [5]: > 50 µg/mL
Antiviral EC50 Sindbis virus (Sindbis virus): > 50 µg/mL
Antiviral EC50 Punta Toro virus (Punta Toro virus): > 50 µg/mL
Antiviral EC50 Vesicular stomatitis virus ([6]; HEp-2 cell cultures): > 50 µg/mL
Antiviral EC50 Human immunodeficiency virus (IIIB) [7]: > 125 µg/mL
Cytotoxixity CC50 [17]: > 125 µg/mL
Cytotoxixity CC50 (HEL cells): > 50 µg/mL
Antiviral EC50 Human Coronavirus (229E) (Human Coronavirus (229E)): > 50 µg/mL
Cytotoxixity CC50 [19]: > 50 µg/mL
Antiviral EC50 Vaccinia virus (Vaccinia virus; HEL cell cultures): > 50 µg/mL
Antiviral EC50 Reo-virus-1 (Reo-virus-1): > 50 µg/mL
Antiviral EC50 Herpes simplex virus-2 (G) [2]: > 50 µg/mL
Antiviral EC50 Influenza B virus B/Ned/537/05 [10]: > 50 µg/mL
Cytotoxixity CC50 (Vero cells): > 50 µg/mL
Antiviral EC50 Zika virus (Zika virus): > 50 µg/mL
Antiviral EC50 Herpes simplex virus-1 (KOS) [3]: > 50 µg/mL
Antiviral EC50 Coxsackie virus B4 (Coxsackie virus B4 [12]): > 50 µg/mL
Antiviral EC50 Influenza A virus A/Ned/378/05 (H1N1) [13]: > 50 µg/mL
Cytotoxixity CC50 [20]: > 50 µg/mL
Antiviral EC50 Human immunodeficiency virus (ROD) [15]: > 125 µg/mL
Antiviral EC50 Coxsackie virus B4 (Coxsackie virus B4 [16]): > 50 µg/mL

Nc1nc(O)c2ncn(COC(CO)CO)c2n1 [Ganciclovir, reference compound]
CC50 (in vitro [1]): > 100 µM
EC50 (Vaccinia virus): > 100 µM
EC50 [2]: 0.09 µM
EC50 [3]: 0.4 µM

Nc1ccn(C[C@@H](CO)OCP(=O)(O)O)c(=O)n1 [Cidofovir, reference compound]
EC50 (Adeno virus-2): 9.9 µM
CC50 (in vitro [1]): > 250 µM
EC50 (Vaccinia virus): 8.7 µM
EC50 [2]: 7.5 µM
EC50 [3]: 39.3 µM

Nc1nc2c(ncn2C2CC(O)C(CO)C3CC32)c(=O)[nH]1 (stereo not drawn) [Compound 1b, 2-Amino-9-[(1′S,2′S,4′R,5′S,6′S)-4′-hydroxy-5′-(hydroxymethyl) Bicyclo[4.1.0]hept-2′-yl]-1,9-dihydro-6H-purin-6-one]
EC50 (Yellow Fever virus): > 50 µg/mL
EC50 (Adeno virus-2): > 50 µg/mL
EC50 [4]: > 50 µg/mL
EC50 [5]: > 50 µg/mL
EC50 (Sindbis virus): > 50 µg/mL
EC50 (Punta Toro virus): > 50 µg/mL
EC50 [6]: > 50 µg/mL
EC50 [7]: > 125 µg/mL
CC50 [8]: > 125 µg/mL
EC50 (Human Coronavirus (229E)): > 50 µg/mL
CC50 (in vitro [9]): > 50 µg/mL
EC50 (Vaccinia virus): > 50 µg/mL
EC50 (Reo-virus-1): > 50 µg/mL
EC50 [2]: > 50 µg/mL
EC50 [10]: > 50 µg/mL
CC50 [11]: > 50 µg/mL
EC50 (Zika virus): > 50 µg/mL
EC50 [3]: > 50 µg/mL
EC50 (Coxsackie virus B4 [12]): > 50 µg/mL
EC50 [13]: > 50 µg/mL
CC50 [14]: > 50 µg/mL
EC50 [15]: > 125 µg/mL
EC50 (Coxsackie virus B4 [16]): > 50 µg/mL
